{"source": "patent US8053013B2", "about": "“Flavour modulating substances” (Quest International Services B.V., priority 2004, dated 2011)", "key": {"[1]": {"test": "Panel evaluation of HIT Duck Flavour samples with and without N Lactoyl glucosamine (Example 8)", "conditions": "Sample B: 0.006% N Lactoyl glucosamine with 0.6% NaCl, 0.03% MSG, 0.1% HIT Duck Flavour (Quest)", "procedure": "Two samples were prepared as follow and compared:\nSample A: 0.6% of NaCl, 0.03% of MSG and 0.1% of HIT Duck Flavour (Quest)\nSample B: 0.6% of NaCl, 0.03% of MSG, 0.1% of HIT Duck Flavour (Quest) and 0.006% N Lactoyl glucosamine as prepared in example 4.\nThe samples were evaluated by a panel of experienced flavourists. There was general agreement about the difference in taste between the samples: […]"}, "[2]": {"test": "Tasting session by a panel of experienced flavourists: solution in tap water (Example 7)", "conditions": "0.1 wt % in tap water", "procedure": "For a tasting session by a panel of experienced flavourists a solution comprising 0.1 wt % of a flavour composition as prepared in example 4 in tap water was prepared."}}}
{"smiles": "CC(O)C(=O)N[C@H]1C(O)O[C@H](CO)[C@@H](O)[C@@H]1O", "note": "(some centres unmarked) [Example 4, N-Lactoyl-Glucosamine]", "values": [{"measurement": "taste described by flavourists, compared with sample A without the substance", "setting": "[1]", "value": "savoury duck flavour, with slightly metallic taste, and more meaty character, authenticity, and naturalness than sample A"}, {"measurement": "taste of the solution described by panellists", "setting": "[2]", "value": "strong metallic, bloody, raw meat like"}]}
